Test results: ChEMBL document CHEMBL1143624, “1-(5-Chloro-2-alkoxyphenyl)-3-(5-cyanopyrazin-2-yl)ureas [correction of cyanopyrazi] as potent and selective inhibitors of Chk1 kinase: synthesis, preliminary SAR, and biological activities” (J Med Chem, 2005)

Columns and labels:
HeLa [1] = test: Anti-proliferative activity against HeLa cells; format: functional, cell-based; details: Homo sapiens
[2] = target: T1, Serine/threonine-protein kinase Chk1 (Homo sapiens, UniProt O14757); test: Inhibition of Serine/threonine-protein kinase Chk1
T1 sequence (O14757 whole entry): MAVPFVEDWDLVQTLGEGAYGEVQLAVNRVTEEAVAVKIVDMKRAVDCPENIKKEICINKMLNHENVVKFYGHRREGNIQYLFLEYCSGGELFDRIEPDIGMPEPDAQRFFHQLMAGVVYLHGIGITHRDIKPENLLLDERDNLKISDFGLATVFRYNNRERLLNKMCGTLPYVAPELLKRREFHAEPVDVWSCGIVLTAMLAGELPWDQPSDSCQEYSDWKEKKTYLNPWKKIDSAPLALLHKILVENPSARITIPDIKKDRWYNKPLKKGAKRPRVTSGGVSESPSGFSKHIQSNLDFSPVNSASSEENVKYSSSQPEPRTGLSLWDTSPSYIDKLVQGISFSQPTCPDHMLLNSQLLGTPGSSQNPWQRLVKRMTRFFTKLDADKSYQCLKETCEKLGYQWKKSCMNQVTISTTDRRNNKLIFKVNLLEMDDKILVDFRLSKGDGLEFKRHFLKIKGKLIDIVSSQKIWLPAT

HeLa [3] = test: Anti-proliferative activity against HeLa cells in the presence of 150 nM of doxorubicin; format: functional, cell-based; details: Homo sapiens
HeLa [4] = test: Ratio of antiproliferative activities (EC50) against HeLa Cells to that with 150 nM doxorubicin; format: functional, Homo sapiens
[5] = target: Mitogen-activated protein kinase 1 (Homo sapiens, UniProt P28482); test: Inhibition of Extracellular signal-regulated kinase 2 (ERK2)
Sequence of Mitogen-activated protein kinase 1 (P28482 whole entry): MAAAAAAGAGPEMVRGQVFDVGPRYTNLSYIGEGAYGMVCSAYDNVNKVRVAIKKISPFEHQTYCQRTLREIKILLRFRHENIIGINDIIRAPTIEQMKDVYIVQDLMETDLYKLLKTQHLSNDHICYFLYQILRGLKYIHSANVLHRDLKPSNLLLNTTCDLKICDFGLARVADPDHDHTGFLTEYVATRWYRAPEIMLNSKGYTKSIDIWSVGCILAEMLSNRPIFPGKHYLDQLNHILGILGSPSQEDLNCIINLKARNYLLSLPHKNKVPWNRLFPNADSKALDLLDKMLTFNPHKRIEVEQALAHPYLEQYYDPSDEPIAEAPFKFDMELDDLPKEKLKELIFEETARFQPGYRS

Aurora kinase A = target: T2, Aurora kinase A (Homo sapiens, UniProt O14965); test: Inhibition of Aurora kinase A (Aur1)
T2 sequence (O14965 whole entry): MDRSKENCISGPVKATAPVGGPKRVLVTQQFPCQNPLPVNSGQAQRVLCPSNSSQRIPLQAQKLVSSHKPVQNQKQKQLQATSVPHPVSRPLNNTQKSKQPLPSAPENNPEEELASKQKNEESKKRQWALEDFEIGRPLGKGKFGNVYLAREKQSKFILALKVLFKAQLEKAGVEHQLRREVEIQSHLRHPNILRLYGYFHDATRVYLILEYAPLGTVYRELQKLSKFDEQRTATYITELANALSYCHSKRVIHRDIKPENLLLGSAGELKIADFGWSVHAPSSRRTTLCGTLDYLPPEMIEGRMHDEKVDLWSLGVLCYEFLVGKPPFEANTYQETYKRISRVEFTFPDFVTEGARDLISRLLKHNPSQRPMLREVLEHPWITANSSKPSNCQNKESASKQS

[6] = target: RAC-alpha serine/threonine-protein kinase (Homo sapiens, UniProt P31749); test: Inhibition of Protein kinase B, alpha (Akt1)
Sequence of RAC-alpha serine/threonine-protein kinase (P31749 whole entry): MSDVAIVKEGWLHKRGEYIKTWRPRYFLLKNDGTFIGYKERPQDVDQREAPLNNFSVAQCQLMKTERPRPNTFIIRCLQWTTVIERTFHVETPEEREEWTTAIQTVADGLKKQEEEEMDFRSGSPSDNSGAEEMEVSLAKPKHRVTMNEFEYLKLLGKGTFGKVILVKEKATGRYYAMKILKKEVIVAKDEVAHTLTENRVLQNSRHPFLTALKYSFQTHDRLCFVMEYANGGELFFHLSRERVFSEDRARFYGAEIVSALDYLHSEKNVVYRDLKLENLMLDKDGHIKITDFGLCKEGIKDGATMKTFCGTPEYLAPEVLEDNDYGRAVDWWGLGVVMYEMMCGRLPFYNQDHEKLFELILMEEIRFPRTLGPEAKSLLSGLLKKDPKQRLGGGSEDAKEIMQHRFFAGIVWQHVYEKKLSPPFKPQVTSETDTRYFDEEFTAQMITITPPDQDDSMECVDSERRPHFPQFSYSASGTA

[7] = target: Protein kinase C delta type (Homo sapiens, UniProt Q05655); test: Inhibition of Protein kinase C delta (PKCdelta)
Sequence of Protein kinase C delta type (Q05655 whole entry): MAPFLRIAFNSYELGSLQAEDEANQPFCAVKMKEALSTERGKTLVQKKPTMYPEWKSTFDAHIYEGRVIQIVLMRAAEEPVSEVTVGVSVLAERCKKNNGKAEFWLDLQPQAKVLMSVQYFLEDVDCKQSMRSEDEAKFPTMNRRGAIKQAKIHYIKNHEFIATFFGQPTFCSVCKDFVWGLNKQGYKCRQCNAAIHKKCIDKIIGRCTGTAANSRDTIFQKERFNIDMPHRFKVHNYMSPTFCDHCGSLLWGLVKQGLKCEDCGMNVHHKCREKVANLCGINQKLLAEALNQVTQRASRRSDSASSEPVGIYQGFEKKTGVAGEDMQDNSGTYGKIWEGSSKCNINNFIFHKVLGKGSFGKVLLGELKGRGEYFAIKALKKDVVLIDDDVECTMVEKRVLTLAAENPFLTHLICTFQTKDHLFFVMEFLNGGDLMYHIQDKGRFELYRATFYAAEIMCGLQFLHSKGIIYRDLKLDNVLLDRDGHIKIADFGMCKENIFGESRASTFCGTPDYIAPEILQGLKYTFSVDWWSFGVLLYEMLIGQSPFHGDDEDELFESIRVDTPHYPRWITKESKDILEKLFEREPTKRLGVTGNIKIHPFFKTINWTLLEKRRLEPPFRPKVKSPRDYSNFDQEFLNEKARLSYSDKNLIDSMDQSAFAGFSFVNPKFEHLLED

[8] = Inhibition of Protein kinase C gamma (PKCgamma)
[9] = target: T3, Serine/threonine-protein kinase Sgk1 (Homo sapiens, UniProt O00141); test: Inhibition of Serum/glucocorticoid regulated kinase (SGK)
T3 sequence (O00141 whole entry): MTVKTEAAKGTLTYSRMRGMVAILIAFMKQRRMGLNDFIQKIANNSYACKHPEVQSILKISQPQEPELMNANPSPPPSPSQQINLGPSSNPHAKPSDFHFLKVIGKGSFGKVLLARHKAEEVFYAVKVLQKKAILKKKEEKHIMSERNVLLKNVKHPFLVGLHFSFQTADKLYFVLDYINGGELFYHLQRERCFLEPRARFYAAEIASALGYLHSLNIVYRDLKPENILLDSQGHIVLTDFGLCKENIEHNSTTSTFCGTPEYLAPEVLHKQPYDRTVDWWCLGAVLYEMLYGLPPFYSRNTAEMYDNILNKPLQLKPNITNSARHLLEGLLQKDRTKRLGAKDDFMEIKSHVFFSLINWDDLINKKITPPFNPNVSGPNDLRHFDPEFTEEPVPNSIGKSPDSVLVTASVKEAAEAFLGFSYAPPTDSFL

[10] = target: Cyclin-dependent kinase 1 (Homo sapiens, UniProt P06493); test: Inhibition of Serine/threonine kinase Cdc2 (Cdc2)
Sequence of Cyclin-dependent kinase 1 (P06493 whole entry): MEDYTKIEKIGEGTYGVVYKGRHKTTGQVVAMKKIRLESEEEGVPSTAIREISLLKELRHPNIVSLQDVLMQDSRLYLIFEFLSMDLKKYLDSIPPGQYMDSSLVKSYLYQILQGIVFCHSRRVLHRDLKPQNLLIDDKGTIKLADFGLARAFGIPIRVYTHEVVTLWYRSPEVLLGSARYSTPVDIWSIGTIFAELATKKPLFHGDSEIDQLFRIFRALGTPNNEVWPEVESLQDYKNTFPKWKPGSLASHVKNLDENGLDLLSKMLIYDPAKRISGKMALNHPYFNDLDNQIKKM

[11] = target: MAP/microtubule affinity-regulating kinase 3 (Homo sapiens, UniProt P27448); test: Inhibition of MAP/microtubule affinity-regulating kinase 3 (cTak1)
Sequence of MAP/microtubule affinity-regulating kinase 3 (P27448 whole entry): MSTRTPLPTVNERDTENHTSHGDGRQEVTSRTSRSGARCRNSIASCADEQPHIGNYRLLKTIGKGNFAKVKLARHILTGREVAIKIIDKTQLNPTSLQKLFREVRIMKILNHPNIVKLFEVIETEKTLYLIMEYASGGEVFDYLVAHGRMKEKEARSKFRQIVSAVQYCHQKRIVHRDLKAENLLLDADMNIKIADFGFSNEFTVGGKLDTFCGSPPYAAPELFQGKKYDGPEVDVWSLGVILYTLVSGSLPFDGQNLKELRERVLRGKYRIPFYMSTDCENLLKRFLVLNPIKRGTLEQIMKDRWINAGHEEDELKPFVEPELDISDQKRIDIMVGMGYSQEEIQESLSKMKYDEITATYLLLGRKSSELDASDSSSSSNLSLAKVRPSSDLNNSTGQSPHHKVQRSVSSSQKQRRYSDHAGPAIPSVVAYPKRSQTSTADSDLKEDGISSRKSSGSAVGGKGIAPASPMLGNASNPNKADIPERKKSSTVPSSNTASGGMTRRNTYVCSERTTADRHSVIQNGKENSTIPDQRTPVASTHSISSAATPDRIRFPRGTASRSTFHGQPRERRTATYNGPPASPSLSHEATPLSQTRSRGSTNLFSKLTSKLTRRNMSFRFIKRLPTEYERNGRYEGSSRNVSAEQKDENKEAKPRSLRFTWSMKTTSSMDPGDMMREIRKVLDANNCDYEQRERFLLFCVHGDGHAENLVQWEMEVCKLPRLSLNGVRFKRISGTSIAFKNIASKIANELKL

[12] = Inhibition of Protein kinase A (PKA)
SW-620 [13] = test: Concentration required to inhibit growth of SW620 (human colon cancer) cells in the presence of 10 uM of Compound 2e; format: functional, cell-based
SW-620 [14] = test: Concentration required to inhibit growth of SW620 (human colon cancer) cells; format: functional, cell-based
[15] = target: Serine/threonine-protein kinase Chk2 (Homo sapiens, UniProt O96017); test: Inhibition of Serine/threonine-protein kinase Chk2
Sequence of Serine/threonine-protein kinase Chk2 (O96017 whole entry): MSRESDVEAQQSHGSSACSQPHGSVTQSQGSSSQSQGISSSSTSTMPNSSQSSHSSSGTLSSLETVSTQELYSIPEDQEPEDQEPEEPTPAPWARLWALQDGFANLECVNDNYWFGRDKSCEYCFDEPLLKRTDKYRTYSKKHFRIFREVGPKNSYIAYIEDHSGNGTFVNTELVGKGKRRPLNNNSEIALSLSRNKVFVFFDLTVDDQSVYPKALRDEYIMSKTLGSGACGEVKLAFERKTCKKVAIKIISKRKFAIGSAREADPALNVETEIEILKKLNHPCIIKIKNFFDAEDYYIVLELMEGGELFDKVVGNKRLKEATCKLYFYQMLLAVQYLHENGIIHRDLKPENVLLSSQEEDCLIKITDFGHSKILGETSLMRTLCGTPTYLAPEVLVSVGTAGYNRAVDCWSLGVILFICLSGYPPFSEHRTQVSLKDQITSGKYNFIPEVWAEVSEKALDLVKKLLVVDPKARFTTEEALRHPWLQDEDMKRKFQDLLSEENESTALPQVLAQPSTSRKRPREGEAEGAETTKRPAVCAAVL

SMILES | EC50 (HeLa [1]) | IC50 [2] | EC50 (HeLa [3]) | IC50 [5] | IC50 (Aurora kinase A) | IC50 [6] | IC50 [7] | IC50 [8] | IC50 [9] | IC50 [10] | IC50 [11] | IC50 [12] | IC50 [15] | Ratio (HeLa [4]) | EC50 (SW-620 [13]) | EC50 (SW-620 [14])
CC[C@@]1(O)C(=O)OCc2c1cc1n(c2=O)Cc2cc3ccccc3nc2-1 [CAMPTOTHECIN] | – | – | – | – | – | – | – | – | – | – | – | – | – | – | 0.00015 µM | 0.0012 µM
N#Cc1cnc(NC(=O)Nc2cc(Cl)ccc2OC2CCOCC2)cn1 | > 59 µM | 0.005 µM | 37 µM | – | – | – | – | – | – | – | – | – | – | >1 | – | –

Continued, in another order:

EC50 (HeLa [1]) | IC50 [2] | EC50 (HeLa [3]) | IC50 [5] | IC50 (Aurora kinase A) | IC50 [6] | IC50 [7] | IC50 [8] | IC50 [9] | IC50 [10] | IC50 [11] | IC50 [12] | IC50 [15] | SMILES | Ratio (HeLa [4]) | EC50 (SW-620 [13]) | EC50 (SW-620 [14])
10.4 µM | 0.01 µM | 10 µM | – | – | – | – | – | – | – | – | – | – | CN1CCC(Oc2ccc(Cl)cc2NC(=O)Nc2cnc(C#N)cn2)CC1 | 1 | – | –
> 59 µM | 0.007 µM | 2.6 µM | > 50 µM | > 10 µM | 9.21 µM | > 50 µM | > 50 µM | > 50 µM | > 50 µM | > 10 µM | > 50 µM | – | CC1(COc2ccc(Cl)cc2NC(=O)Nc2cnc(C#N)cn2)COC1 | >22 | – | –
18.7 µM | 0.003 µM | 5 µM | – | – | – | – | – | – | – | – | – | – | N#Cc1cnc(NC(=O)Nc2cc(Cl)ccc2OC2CCOC2)cn1 (stereo unspecified) | 3.6 | – | –
1.5 µM | 0.008 µM | 0.4 µM | > 50 µM | 3.23 µM | > 50 µM | 50 µM | 50 µM | > 50 µM | > 50 µM | 1.51 µM | > 50 µM | 2.8 µM | CC(CN(C)C)Oc1ccc(Cl)cc1NC(=O)Nc1cnc(C#N)cn1 (stereo unspecified) | 3.7 | – | –
